Laboratory results reported in ChEMBL document CHEMBL5303573, “Mapping human microbiome drug metabolism by gut bacteria and their genes” (Nature, 2019).

Key:
[1] = The drug is tested on Blautia luti strain: DSM14534 for biotransformation. The drug concentrations were measured before and after a 12-h incubation by liquid-chromatography-coupled mass spectrometry (LC–MS); type: ADME; design: dose 2 uM, timepoint 0 vs 12 hours; conditions: 2 µM
[2] = bacteroides eggerthii, 12 h, 2 µM
Description: The drug is tested on Bacteroides eggerthii strain: DSM20697 for biotransformation. The drug concentrations were measured before and after a 12-h incubation by liquid-chromatography-coupled mass spectrometry (LC–MS)

[3] = The drug is tested on Edwardsiella tarda strain: ATCC23685 for biotransformation. The drug concentrations were measured before and after a 12-h incubation by liquid-chromatography-coupled mass spectrometry (LC–MS); conditions: 2 µM
[4] = bacteroides fragilis, 12 h, 2 µM
Description: The drug is tested on Bacteroides fragilis strain: DS-208 for biotransformation. The drug concentrations were measured before and after a 12-h incubation by liquid-chromatography-coupled mass spectrometry (LC–MS)

[5] = bacteroides fragilis, 12 h, 2 µM; remark: listed apart in the source
Description: The drug is tested on Bacteroides fragilis strain: NCTC 9343 for biotransformation. The drug concentrations were measured before and after a 12-h incubation by liquid-chromatography-coupled mass spectrometry (LC–MS)

[6] = parabacteroides johnsonii, 12 h, 2 µM
Description: The drug is tested on Parabacteroides johnsonii strain: DSM18315 for biotransformation. The drug concentrations were measured before and after a 12-h incubation by liquid-chromatography-coupled mass spectrometry (LC–MS)

[7] = The drug is tested on Bacteroides uniformis strain: ATCC8492 for biotransformation. The drug concentrations were measured before and after a 12-h incubation by liquid-chromatography-coupled mass spectrometry (LC–MS); conditions: 2 µM
[8] = The drug is tested on Bacteroides vulgatus strain: ATCC8482 for biotransformation. The drug concentrations were measured before and after a 12-h incubation by liquid-chromatography-coupled mass spectrometry (LC–MS); conditions: phocaeicola vulgatus, 2 µM
[9] = The drug is tested on Bifidobacterium breve strain: DSM20213 for biotransformation. The drug concentrations were measured before and after a 12-h incubation by liquid-chromatography-coupled mass spectrometry (LC–MS); conditions: 2 µM
[10] = The drug is tested on Clostridium sporogenes strain: ATCC15579 for biotransformation. The drug concentrations were measured before and after a 12-h incubation by liquid-chromatography-coupled mass spectrometry (LC–MS); conditions: 2 µM
[11] = The drug is tested on Clostridium symbiosum strain: ATCC14940 for biotransformation. The drug concentrations were measured before and after a 12-h incubation by liquid-chromatography-coupled mass spectrometry (LC–MS); conditions: 2 µM
[12] = The drug is tested on Parabacteroides merdae strain: ATCC43184 for biotransformation. The drug concentrations were measured before and after a 12-h incubation by liquid-chromatography-coupled mass spectrometry (LC–MS); conditions: 2 µM
[13] = The drug is tested on Bacteroides caccae strain: ATCC43185 for biotransformation. The drug concentrations were measured before and after a 12-h incubation by liquid-chromatography-coupled mass spectrometry (LC–MS); conditions: 2 µM
[14] = akkermansia muciniphila, 12 h, 2 µM
Description: The drug is tested on Akkermansia muciniphila strain: ATCC BAA-835 for biotransformation. The drug concentrations were measured before and after a 12-h incubation by liquid-chromatography-coupled mass spectrometry (LC–MS)

[15] = The drug is tested on Bacteroides sp. WH2 strain: WH2 for biotransformation. The drug concentrations were measured before and after a 12-h incubation by liquid-chromatography-coupled mass spectrometry (LC–MS); conditions: bacteroides sp. wh2, 12 h, 2 µM
[16] = The drug is tested on Bifidobacterium ruminantium strain: fecal isolate for biotransformation. The drug concentrations were measured before and after a 12-h incubation by liquid-chromatography-coupled mass spectrometry (LC–MS); conditions: 2 µM
[17] = bacteroides stercoris, 12 h, 2 µM
Description: The drug is tested on Bacteroides stercoris strain: ATCC43183 for biotransformation. The drug concentrations were measured before and after a 12-h incubation by liquid-chromatography-coupled mass spectrometry (LC–MS)

[18] = limosilactobacillus reuteri cf48-3a, 12 h, 2 µM
Description: The drug is tested on Lactobacillus reuteri CF48-3A strain: BEI HM-102 for biotransformation. The drug concentrations were measured before and after a 12-h incubation by liquid-chromatography-coupled mass spectrometry (LC–MS)

[19] = The drug is tested on Providencia rettgeri strain: DSM1131 for biotransformation. The drug concentrations were measured before and after a 12-h incubation by liquid-chromatography-coupled mass spectrometry (LC–MS); type: ADME; design: dose 2 uM, timepoint 0 vs 12 hours; conditions: 2 µM

Compound	Bacterial Biotransformation [1]	Bacterial Biotransformation [2]	Bacterial Biotransformation [3]	Bacterial Biotransformation [4]	Bacterial Biotransformation [5]	Bacterial Biotransformation [6]	Bacterial Biotransformation [7]	Bacterial Biotransformation [8]	Bacterial Biotransformation [9]	Bacterial Biotransformation [10]	Bacterial Biotransformation [11]	Bacterial Biotransformation [12]	Bacterial Biotransformation [13]	Bacterial Biotransformation [14]	Bacterial Biotransformation [15]	Bacterial Biotransformation [16]	Bacterial Biotransformation [17]	Bacterial Biotransformation [18]	Bacterial Biotransformation [19]
CN1CCC(OC(c2ccccc2)c2ccccc2)CC1	Compound NOT metabolized	Compound NOT metabolized	Compound NOT metabolized	Compound NOT metabolized	Compound NOT metabolized	Compound NOT metabolized	Compound NOT metabolized	Compound NOT metabolized	Compound NOT metabolized	Compound NOT metabolized	Compound NOT metabolized	Compound NOT metabolized	Compound NOT metabolized	–	Compound NOT metabolized	Compound metabolized	Compound NOT metabolized	Compound NOT metabolized	Compound NOT metabolized
COc1ccc2c3c1O[C@H]1C[C@@H](O)C=C[C@@]31CCN(C)C2 [GALANTAMINE]	Compound NOT metabolized	Compound metabolized	Compound NOT metabolized	Compound metabolized	–	Compound NOT metabolized	Compound metabolized	Compound metabolized	Compound NOT metabolized	Compound NOT metabolized	Compound NOT metabolized	Compound NOT metabolized	Compound NOT metabolized	Compound NOT metabolized	Compound metabolized	Compound NOT metabolized	Compound NOT metabolized	–	Compound NOT metabolized
Nc1nc(N)nc(-c2cc(Cl)ccc2Cl)n1.O=C(O)/C=C\C(=O)O [IRSOGLADINE MALEATE]	Compound NOT metabolized	Compound NOT metabolized	Compound NOT metabolized	Compound NOT metabolized	Compound NOT metabolized	Compound metabolized	Compound NOT metabolized	Compound NOT metabolized	Compound NOT metabolized	Compound NOT metabolized	Compound NOT metabolized	Compound NOT metabolized	Compound NOT metabolized	Compound NOT metabolized	Compound NOT metabolized	Compound metabolized	Compound NOT metabolized	–	Compound NOT metabolized
Cc1ccnc2c1NC(=O)c1cccnc1N2C1CC1 [NEVIRAPINE]	Compound NOT metabolized	Compound NOT metabolized	Compound NOT metabolized	Compound metabolized	Compound NOT metabolized	Compound NOT metabolized	–	Compound NOT metabolized	Compound NOT metabolized	Compound NOT metabolized	Compound NOT metabolized	Compound NOT metabolized	Compound NOT metabolized	Compound NOT metabolized	Compound NOT metabolized	Compound NOT metabolized	Compound NOT metabolized	Compound NOT metabolized	Compound NOT metabolized

The next lines start with the values.

Bacterial Biotransformation [1]	Bacterial Biotransformation [2]	Bacterial Biotransformation [3]	Bacterial Biotransformation [4]	Bacterial Biotransformation [5]	Bacterial Biotransformation [6]	Bacterial Biotransformation [7]	Bacterial Biotransformation [8]	Bacterial Biotransformation [9]	Bacterial Biotransformation [10]	Bacterial Biotransformation [11]	Bacterial Biotransformation [12]	Bacterial Biotransformation [13]	Bacterial Biotransformation [14]	Bacterial Biotransformation [15]	Bacterial Biotransformation [16]	Bacterial Biotransformation [17]	Bacterial Biotransformation [18]	Bacterial Biotransformation [19]	Compound
Compound NOT metabolized	Compound NOT metabolized	Compound NOT metabolized	Compound NOT metabolized	Compound NOT metabolized	Compound NOT metabolized	Compound NOT metabolized	Compound NOT metabolized	Compound NOT metabolized	Compound NOT metabolized	Compound NOT metabolized	Compound NOT metabolized	Compound NOT metabolized	Compound NOT metabolized	Compound NOT metabolized	Compound NOT metabolized	Compound NOT metabolized	Compound NOT metabolized	Compound NOT metabolized	Cc1cc2c(cc1S(N)(=O)=O)S(=O)(=O)CCC2
Compound metabolized	Compound metabolized	Compound NOT metabolized	Compound metabolized	Compound metabolized	Compound metabolized	Compound metabolized	Compound metabolized	Compound NOT metabolized	Compound metabolized	Compound metabolized	Compound metabolized	Compound metabolized	Compound metabolized	Compound metabolized	Compound metabolized	Compound metabolized	Compound NOT metabolized	Compound metabolized	CC(=O)OCC(=O)[C@@]1(OC(C)=O)[C@@H](C)C[C@H]2[C@@H]3C[C@H](F)C4=CC(=O)C=C[C@]4(C)[C@@]3(F)[C@@H](O)C[C@@]21C [DIFLORASONE DIACETATE]
Compound NOT metabolized	Compound NOT metabolized	Compound NOT metabolized	Compound NOT metabolized	Compound NOT metabolized	Compound NOT metabolized	Compound NOT metabolized	Compound NOT metabolized	Compound NOT metabolized	Compound NOT metabolized	Compound NOT metabolized	Compound NOT metabolized	Compound NOT metabolized	Compound NOT metabolized	Compound NOT metabolized	Compound NOT metabolized	Compound NOT metabolized	Compound NOT metabolized	Compound NOT metabolized	CC(C)(C(=O)O)c1ccc(C(O)CCCN2CCC(C(O)(c3ccccc3)c3ccccc3)CC2)cc1 (configuration not stated) [FEXOFENADINE]
Compound NOT metabolized	Compound NOT metabolized	Compound NOT metabolized	Compound NOT metabolized	Compound NOT metabolized	Compound NOT metabolized	Compound NOT metabolized	Compound NOT metabolized	Compound NOT metabolized	Compound NOT metabolized	Compound NOT metabolized	Compound NOT metabolized	Compound NOT metabolized	Compound NOT metabolized	Compound NOT metabolized	Compound NOT metabolized	Compound NOT metabolized	Compound NOT metabolized	Compound NOT metabolized	N#Cc1ccc(C(c2ccc(C#N)cc2)n2cncn2)cc1 [LETROZOLE]
